Data: BigSolDB 2.1

`CC[C@H](C)C(=O)O[C@H]1C[C@@H](C)C=C2C=C[C@H](C)[C@H](CC[C@@H]3C[C@@H](O)CC(=O)O3)[C@H]21` showed a solubility (mole fraction) (in 2-butanone, 285.1 K) of 0.00752, a solubility (mole fraction) (in 2-butanone, 288.3 K) of 0.00878 and a solubility (mole fraction) (in 2-butanone, 291.2 K) of 0.00918. For the same compound, the solubility (mole fraction) (in 2-butanone, 294.6 K) was 0.0111, the solubility (mole fraction) (in 2-butanone, 297.2 K) was 0.0115 and the solubility (mole fraction) (in 2-butanone, 300.3 K) was 0.0132. It also gave a solubility (mole fraction) (in 2-butanone, 303.1 K) of 0.0147, a solubility (mole fraction) (in 2-butanone, 306.3 K) of 0.0175 and a solubility (mole fraction) (in 2-butanone, 309.4 K) of 0.0197. For the same compound, the solubility (mole fraction) (in 2-butanone, 312.2 K) was 0.0219, the solubility (mole fraction) (in acetone, 285.1 K) was 0.00831 and the solubility (mole fraction) (in acetone, 288.3 K) was 0.00936. It also gave a solubility (mole fraction) (in acetone, 291.2 K) of 0.0104, a solubility (mole fraction) (in acetone, 294.6 K) of 0.0118 and a solubility (mole fraction) (in acetone, 297.2 K) of 0.013. It also gave a solubility (mole fraction) (in acetone, 300.3 K) of 0.0146, a solubility (mole fraction) (in acetone, 303.1 K) of 0.0163 and a solubility (mole fraction) (in acetone, 306.3 K) of 0.0183. The solubility (mole fraction) (in acetone, 309.4 K) was 0.0206, the solubility (mole fraction) (in acetone, 312.2 K) was 0.0228 and the solubility (mole fraction) (in ethyl acetate, 285.1 K) was 0.00417. The solubility (mole fraction) (in ethyl acetate, 288.3 K) was 0.0047, the solubility (mole fraction) (in ethyl acetate, 291.2 K) was 0.00517 and the solubility (mole fraction) (in ethyl acetate, 294.6 K) was 0.00586. The solubility (mole fraction) (in ethyl acetate, 297.2 K) was 0.00656, the solubility (mole fraction) (in ethyl acetate, 300.3 K) was 0.00706 and the solubility (mole fraction) (in ethyl acetate, 303.1 K) was 0.00778. It also gave a solubility (mole fraction) (in ethyl acetate, 306.3 K) of 0.0087, a solubility (mole fraction) (in ethyl acetate, 309.4 K) of 0.00967 and a solubility (mole fraction) (in ethyl acetate, 312.2 K) of 0.0108. It also gave a solubility (mole fraction) (in isobutyl acetate, 285.1 K) of 0.00345, a solubility (mole fraction) (in isobutyl acetate, 288.3 K) of 0.00383 and a solubility (mole fraction) (in isobutyl acetate, 291.2 K) of 0.00422. It also gave a solubility (mole fraction) (in isobutyl acetate, 294.6 K) of 0.0047, a solubility (mole fraction) (in isobutyl acetate, 297.2 K) of 0.00504 and a solubility (mole fraction) (in isobutyl acetate, 300.3 K) of 0.0057. The solubility (mole fraction) (in isobutyl acetate, 303.1 K) was 0.00627, the solubility (mole fraction) (in isobutyl acetate, 306.3 K) was 0.00702 and the solubility (mole fraction) (in isobutyl acetate, 309.4 K) was 0.00777. For the same compound, the solubility (mole fraction) (in isobutyl acetate, 312.2 K) was 0.00864, the solubility (mole fraction) (in isopropyl acetate, 285.1 K) was 0.00335 and the solubility (mole fraction) (in isopropyl acetate, 288.3 K) was 0.00372. It also gave a solubility (mole fraction) (in isopropyl acetate, 291.2 K) of 0.00412, a solubility (mole fraction) (in isopropyl acetate, 294.6 K) of 0.00459 and a solubility (mole fraction) (in isopropyl acetate, 297.2 K) of 0.00497. For the same compound, the solubility (mole fraction) (in isopropyl acetate, 300.3 K) was 0.00553, the solubility (mole fraction) (in isopropyl acetate, 303.1 K) was 0.00606 and the solubility (mole fraction) (in isopropyl acetate, 306.3 K) was 0.00677. It also gave a solubility (mole fraction) (in isopropyl acetate, 309.4 K) of 0.00756, a solubility (mole fraction) (in isopropyl acetate, 312.2 K) of 0.00832 and a solubility (mole fraction) (in methyl acetate, 285.1 K) of 0.00309. The solubility (mole fraction) (in methyl acetate, 288.3 K) was 0.0034, the solubility (mole fraction) (in methyl acetate, 291.2 K) was 0.00376 and the solubility (mole fraction) (in methyl acetate, 294.6 K) was 0.00417. The solubility (mole fraction) (in methyl acetate, 297.2 K) was 0.00447, the solubility (mole fraction) (in methyl acetate, 300.3 K) was 0.00515 and the solubility (mole fraction) (in methyl acetate, 303.1 K) was 0.00543. It also gave a solubility (mole fraction) (in methyl acetate, 306.3 K) of 0.00619, a solubility (mole fraction) (in methyl acetate, 309.4 K) of 0.00674 and a solubility (mole fraction) (in methyl acetate, 312.2 K) of 0.00746. For the same compound, the solubility (mole fraction) (in n-butyl acetate, 285.1 K) was 0.00407, the solubility (mole fraction) (in n-butyl acetate, 288.3 K) was 0.00452 and the solubility (mole fraction) (in n-butyl acetate, 291.2 K) was 0.00494. It also gave a solubility (mole fraction) (in n-butyl acetate, 294.6 K) of 0.00557, a solubility (mole fraction) (in n-butyl acetate, 297.2 K) of 0.00611 and a solubility (mole fraction) (in n-butyl acetate, 300.3 K) of 0.00679. For the same compound, the solubility (mole fraction) (in n-butyl acetate, 303.1 K) was 0.00748, the solubility (mole fraction) (in n-butyl acetate, 306.3 K) was 0.00836 and the solubility (mole fraction) (in n-butyl acetate, 309.4 K) was 0.00931. The solubility (mole fraction) (in n-butyl acetate, 312.2 K) was 0.0103, the solubility (mole fraction) (in n-propyl acetate, 285.1 K) was 0.00395 and the solubility (mole fraction) (in n-propyl acetate, 288.3 K) was 0.00438. The solubility (mole fraction) (in n-propyl acetate, 291.2 K) was 0.00481, the solubility (mole fraction) (in n-propyl acetate, 294.6 K) was 0.00544 and the solubility (mole fraction) (in n-propyl acetate, 297.2 K) was 0.00587. For the same compound, the solubility (mole fraction) (in n-propyl acetate, 300.3 K) was 0.00658, the solubility (mole fraction) (in n-propyl acetate, 303.1 K) was 0.00724 and the solubility (mole fraction) (in n-propyl acetate, 306.3 K) was 0.00803. For the same compound, the solubility (mole fraction) (in n-propyl acetate, 309.4 K) was 0.00901, the solubility (mole fraction) (in n-propyl acetate, 312.2 K) was 0.00997 and the solubility (mole fraction) (in sec-butyl acetate, 285.1 K) was 0.00365. It also gave a solubility (mole fraction) (in sec-butyl acetate, 288.3 K) of 0.00401, a solubility (mole fraction) (in sec-butyl acetate, 291.2 K) of 0.00446 and a solubility (mole fraction) (in sec-butyl acetate, 294.6 K) of 0.005. For the same compound, the solubility (mole fraction) (in sec-butyl acetate, 297.2 K) was 0.00545, the solubility (mole fraction) (in sec-butyl acetate, 300.3 K) was 0.00606 and the solubility (mole fraction) (in sec-butyl acetate, 303.1 K) was 0.00666. For the same compound, the solubility (mole fraction) (in sec-butyl acetate, 306.3 K) was 0.00745, the solubility (mole fraction) (in sec-butyl acetate, 309.4 K) was 0.0083 and the solubility (mole fraction) (in sec-butyl acetate, 312.2 K) was 0.00915. The solubility (mole fraction) (in tert-butyl acetate, 285.1 K) was 0.00275, the solubility (mole fraction) (in tert-butyl acetate, 288.3 K) was 0.00314 and the solubility (mole fraction) (in tert-butyl acetate, 291.2 K) was 0.00346. For the same compound, the solubility (mole fraction) (in tert-butyl acetate, 294.6 K) was 0.00386, the solubility (mole fraction) (in tert-butyl acetate, 297.2 K) was 0.0042 and the solubility (mole fraction) (in tert-butyl acetate, 300.3 K) was 0.00479. The solubility (mole fraction) (in tert-butyl acetate, 303.1 K) was 0.0051, the solubility (mole fraction) (in tert-butyl acetate, 306.3 K) was 0.00569 and the solubility (mole fraction) (in tert-butyl acetate, 309.4 K) was 0.00638. It also gave a solubility (mole fraction) (in tert-butyl acetate, 312.2 K) of 0.00693.
